Test results published in US20100317073A1, “MOLECULAR APPROACHES FOR THE OPTIMIZATION OF BIOFUEL PRODUCTION” (The Ohio State University Research Foundation, priority 2007, published 2010).

System: Chlorella protothecoides
Experiment: Growth of Chlorella protothecoides in glycerol supplemented media: growth and total lipid yield
Format: cell-based
Details: glycerol supplemented medium
Excerpt: Note that Chlorella protothecoides growth is enhanced by glycerol; a byproduct of biodiesel.

For `OCC(O)CO` [glycerol], the increase in growth was “at least 10 fold” and the total lipid yield was “enhanced”.
